{"source": "paper PMC6385246", "about": "“The human gut Firmicute Roseburia intestinalis is a primary degrader of dietary β-mannans” (Nature Communications, 2019)", "key": {"[1]": {"biological_target": "T1, RiPgm (Roseburia intestinalis, UniProt C7G6G9)", "T1 construct": "gene pgcA_1; recombinant from E. coli, untagged (stop codon before His-tag), HIC purified; encoded in MULL (ROSINTL182_05469-83), own locus tag not in text", "T1 sequence (C7G6G9 1-572)": "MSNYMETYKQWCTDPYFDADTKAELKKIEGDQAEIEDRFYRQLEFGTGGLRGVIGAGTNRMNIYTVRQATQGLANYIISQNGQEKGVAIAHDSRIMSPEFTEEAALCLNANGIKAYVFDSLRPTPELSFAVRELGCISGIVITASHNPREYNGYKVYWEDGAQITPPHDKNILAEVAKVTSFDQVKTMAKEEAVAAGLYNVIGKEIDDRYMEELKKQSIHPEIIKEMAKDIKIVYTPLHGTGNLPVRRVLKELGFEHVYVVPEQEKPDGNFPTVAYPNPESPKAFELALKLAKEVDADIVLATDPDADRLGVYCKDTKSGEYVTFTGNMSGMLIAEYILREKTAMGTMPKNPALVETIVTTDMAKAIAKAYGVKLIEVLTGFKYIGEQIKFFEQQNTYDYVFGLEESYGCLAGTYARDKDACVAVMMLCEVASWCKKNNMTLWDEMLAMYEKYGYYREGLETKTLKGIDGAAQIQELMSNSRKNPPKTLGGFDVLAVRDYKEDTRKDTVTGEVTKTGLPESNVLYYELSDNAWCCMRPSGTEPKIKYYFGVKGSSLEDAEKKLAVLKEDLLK", "test": "HPAEC-PAD of M6P formed", "assay_type": "biochemical", "details": "10 mM sodium phosphate pH 5.8, 1 mM MgCl2, 37 °C"}, "[2]": {"biological_target": "T2, RiGH113 (Roseburia intestinalis, UniProt C7G6H0)", "T2 construct": "gene RIL182_01090; recombinant from E. coli, untagged (stop codon before His-tag), HIC purified", "T2 sequence (C7G6H0 1-311)": "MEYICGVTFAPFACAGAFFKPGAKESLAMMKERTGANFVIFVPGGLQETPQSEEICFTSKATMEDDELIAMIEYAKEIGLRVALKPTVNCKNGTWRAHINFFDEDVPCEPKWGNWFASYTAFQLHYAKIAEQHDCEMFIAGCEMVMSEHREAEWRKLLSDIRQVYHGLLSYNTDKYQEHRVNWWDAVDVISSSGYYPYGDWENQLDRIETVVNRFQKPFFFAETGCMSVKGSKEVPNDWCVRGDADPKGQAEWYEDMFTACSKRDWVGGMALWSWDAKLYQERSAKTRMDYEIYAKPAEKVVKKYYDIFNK", "test": "HPAEC-PAD of mannose released", "assay_type": "biochemical", "details": "10 mM sodium phosphate pH 5.8, 37 °C, overnight"}, "[3]": {"biological_target": "T3, RiMep (Roseburia intestinalis, UniProt C7G6G3)", "T3 construct": "gene ce-ne1; recombinant from E. coli, untagged (stop codon before His-tag), HIC purified", "T3 sequence (C7G6G3 1-409)": "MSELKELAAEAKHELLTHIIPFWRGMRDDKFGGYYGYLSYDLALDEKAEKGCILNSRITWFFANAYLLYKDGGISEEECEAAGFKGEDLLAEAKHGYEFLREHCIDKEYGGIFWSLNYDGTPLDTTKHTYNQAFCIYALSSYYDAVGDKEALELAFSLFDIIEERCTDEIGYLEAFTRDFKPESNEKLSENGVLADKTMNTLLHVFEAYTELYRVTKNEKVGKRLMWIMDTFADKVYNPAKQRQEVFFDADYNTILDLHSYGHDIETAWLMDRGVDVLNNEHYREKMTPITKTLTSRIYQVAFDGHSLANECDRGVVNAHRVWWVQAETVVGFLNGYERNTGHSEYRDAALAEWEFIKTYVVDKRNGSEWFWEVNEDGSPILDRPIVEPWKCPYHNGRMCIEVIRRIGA", "test": "HPAEC-PAD of epimerization products", "assay_type": "biochemical", "details": "10 mM sodium phosphate pH 5.8, 37 °C"}, "[4]": {"biological_target": "T4, RiCBM27 (Roseburia intestinalis, UniProt Z9TV37KX76)", "T4 construct": "expressed in Escherichia coli, immobilized on NTA chip (His6-tag)", "T4 sequence (Z9TV37KX76 38-185 limits assumed)": "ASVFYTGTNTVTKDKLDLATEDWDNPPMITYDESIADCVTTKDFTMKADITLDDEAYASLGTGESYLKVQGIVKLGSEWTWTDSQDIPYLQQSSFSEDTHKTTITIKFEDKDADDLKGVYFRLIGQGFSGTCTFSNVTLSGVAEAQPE", "test": "SPR (Biacore T100, CBM immobilized on NTA chip)", "assay_type": "binding", "details": "25 °C, 20 mM phosphate/citrate pH 6.5, 150 mM NaCl", "description": "SPR (Biacore T100, CBM immobilized on NTA chip) on RiCBM27"}, "[5]": {"biological_target": "T5, RiCBM23 (Roseburia intestinalis)", "T5 construct": "expressed in Escherichia coli, immobilized on NTA chip (His6-tag)", "test": "SPR (Biacore T100, CBM immobilized on NTA chip)", "assay_type": "binding", "details": "25 °C, 20 mM phosphate/citrate pH 6.5, 150 mM NaCl", "description": "SPR (Biacore T100, CBM immobilized on NTA chip) on RiCBM23"}, "[6]": {"biological_target": "T6, RiMnBP (Roseburia intestinalis, UniProt C7G6G6)", "T6 construct": "gene msmE; mature form, cloned in pETM-11, expressed in E. coli", "T6 sequence (C7G6G6 23-489)": "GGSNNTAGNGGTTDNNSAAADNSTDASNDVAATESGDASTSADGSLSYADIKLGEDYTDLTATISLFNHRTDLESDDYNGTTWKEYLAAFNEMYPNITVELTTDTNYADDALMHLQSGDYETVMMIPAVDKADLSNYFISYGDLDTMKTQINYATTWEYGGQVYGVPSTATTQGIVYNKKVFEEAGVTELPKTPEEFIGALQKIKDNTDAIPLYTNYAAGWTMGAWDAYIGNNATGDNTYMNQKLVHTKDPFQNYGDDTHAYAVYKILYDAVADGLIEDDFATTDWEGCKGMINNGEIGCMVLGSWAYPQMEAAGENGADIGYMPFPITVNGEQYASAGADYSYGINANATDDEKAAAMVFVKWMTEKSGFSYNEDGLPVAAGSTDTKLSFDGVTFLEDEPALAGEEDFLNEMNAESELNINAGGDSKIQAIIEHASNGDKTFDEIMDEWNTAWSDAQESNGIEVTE", "test": "ITC", "assay_type": "binding", "details": "25 °C, 10 mM sodium phosphate pH 6.5"}, "[7]": {"biological_target": "T7, RiGH130_2 (Roseburia intestinalis, UniProt C7G6G1)", "T7 construct": "gene RIL182_01100; recombinant from E. coli, C-terminal His6-tag", "T7 sequence (C7G6G1 entry or part of it)": "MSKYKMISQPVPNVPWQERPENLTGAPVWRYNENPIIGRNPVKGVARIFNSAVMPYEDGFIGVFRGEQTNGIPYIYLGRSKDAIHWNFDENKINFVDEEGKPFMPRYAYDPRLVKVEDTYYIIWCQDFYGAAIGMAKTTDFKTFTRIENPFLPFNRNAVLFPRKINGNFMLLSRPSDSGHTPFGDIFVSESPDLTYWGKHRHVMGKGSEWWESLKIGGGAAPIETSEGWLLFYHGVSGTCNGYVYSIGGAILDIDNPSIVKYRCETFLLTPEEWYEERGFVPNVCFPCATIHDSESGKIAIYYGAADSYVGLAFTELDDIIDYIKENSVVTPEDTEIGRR", "test": "HPAEC-PAD of phosphorolysis products", "assay_type": "biochemical", "details": "100 mM sodium phosphate pH 5.8, 37 °C"}}}
{"compound": "O=P(O)(O)O[C@H]1O[C@H](CO)[C@@H](O)[C@H](O)[C@@H]1O", "note": "[M1P, mannose-1-phosphate]", "values": [{"measurement": "HPAEC-PAD of M6P formed", "setting": "[1]", "result": "RiPgm catalyzes the interconversion of M1P and mannose 6-phosphate (M6P)"}]}
{"compound": "OC[C@H]1O[C@@H](O[C@H]2[C@H](O)[C@H](O)C(O)O[C@@H]2CO)[C@@H](O)[C@@H](O)[C@@H]1O", "note": "(stereo partly drawn) [M2, mannobiose]", "values": [{"measurement": "HPAEC-PAD of mannose released", "setting": "[2]", "result": "After overnight incubation with RiGH113, M2 was partially degraded to mannose"}, {"measurement": "HPAEC-PAD of epimerization products", "setting": "[3]", "result": "RiMep was active on M2 and cellobiose (G2), releasing M1G1 and G1M1, respectively"}]}
{"compound": "OC[C@H]1O[C@@H](O[C@H]2[C@H](O)[C@H](O)[C@H](O[C@H]3[C@H](O)[C@H](O)C(O)O[C@@H]3CO)O[C@@H]2CO)[C@@H](O)[C@@H](O)[C@@H]1O", "note": "(stereo partly drawn) [M3, mannotriose]", "values": [{"measurement": "Kd", "setting": "[4]", "result": "1590 ± 30", "unit": "µM"}, {"measurement": "Kd", "setting": "[5]", "result": "230 ± 20", "unit": "µM"}, {"measurement": "Kd", "setting": "[6]", "result": 2.62, "unit": "µM"}]}
{"compound": "OC[C@H]1O[C@@H](O[C@H]2[C@H](O)[C@H](O)[C@H](O[C@H]3[C@H](O)[C@H](O)[C@H](O[C@H]4[C@H](O)[C@H](O)C(O)O[C@@H]4CO)O[C@@H]3CO)O[C@@H]2CO)[C@@H](O)[C@@H](O)[C@@H]1O", "note": "(stereo partly drawn) [M4, mannotetraose]", "values": [{"measurement": "Kd", "setting": "[4]", "result": "658 ± 20", "unit": "µM"}, {"measurement": "HPAEC-PAD of phosphorolysis products", "setting": "[7]", "result": "phosphorolyzed M4 into M3, M2 and mannose-1-phosphate (M1P)"}, {"measurement": "Kd", "setting": "[5]", "result": "130 ± 50", "unit": "µM"}, {"measurement": "Kd", "setting": "[6]", "result": 3.89, "unit": "µM"}]}
{"compound": "OC[C@H]1O[C@@H](O[C@H]2[C@H](O)[C@H](O)[C@H](O[C@H]3[C@H](O)[C@H](O)[C@H](O[C@H]4[C@H](O)[C@H](O)[C@H](O[C@H]5[C@H](O)[C@H](O)C(O)O[C@@H]5CO)O[C@@H]4CO)O[C@@H]3CO)O[C@@H]2CO)[C@@H](O)[C@@H](O)[C@@H]1O", "note": "(stereo partly drawn) [M5, mannopentaose]", "values": [{"measurement": "Kd", "setting": "[4]", "result": "321 ± 20", "unit": "µM"}, {"measurement": "Kd", "setting": "[5]", "result": "198 ± 70", "unit": "µM"}, {"measurement": "Kd", "setting": "[6]", "result": 2.55, "unit": "µM"}]}
{"compound": "OC[C@H]1O[C@@H](O[C@H]2[C@H](O)[C@H](O)[C@H](O[C@H]3[C@H](O)[C@H](O)[C@H](O[C@H]4[C@H](O)[C@H](O)[C@H](O[C@H]5[C@H](O)[C@H](O)[C@H](O[C@H]6[C@H](O)[C@H](O)C(O)O[C@@H]6CO)O[C@@H]5CO)O[C@@H]4CO)O[C@@H]3CO)O[C@@H]2CO)[C@@H](O)[C@@H](O)[C@@H]1O", "note": "(stereo partly drawn) [M6, mannohexaose]", "values": [{"measurement": "Kd", "setting": "[4]", "result": "165 ± 10", "unit": "µM"}, {"measurement": "Kd", "setting": "[5]", "result": "205 ± 40", "unit": "µM"}, {"measurement": "Kd", "setting": "[6]", "result": 33.8, "unit": "µM"}]}
{"compound": "diacetylated mannopentaose [M5Ac2]", "values": [{"measurement": "Kd", "setting": "[6]", "result": 23.5, "unit": "µM"}]}
{"compound": "diacetylated mannotetraose [M4Ac2]", "values": [{"measurement": "Kd", "setting": "[6]", "result": 25.7, "unit": "µM"}]}
